Assays:
[1] = tested on: pS6K1 in MCF7 (measure of mTORC1 activity); test: AlphaLISA Ultra pS6K1 assay; type: cell-based; settings: Homo sapiens, MCF7, 2 h, MCF-7 cells, 2 hours compound incubation
Method: (§1) Assay Protocol: • 1. […] 12,000˜16,000 cells will be seeded in 36 μL medium per well. • 2. Change the culture medium with fresh medium and incubate for another 2 hours. • 3. Add 12 μL (4λ) compounds into the cell plate by HAMILTON. Final DMSO concentration is 0.5%. Incubate for 2 hours. • 4. Aspirate 38 μL by HAMILTON, 10 μL rest per well. • 5. Add 10 μL 2× lysis buffer using HAMILTON; total volume in wells is 20 μL. Allow cells to shake for 30 min. Cover plate by plastic foil and store plate at −80° C. up to analysis. • 6. […] Add 5 ul acceptor beads into assay plate and incubation for 2 hours • 8. Add 5 ul donor beads and incubation for 2 hours • 9. Count the plate by EnSpire Multimode Plate Reader

[2] = tested on: pAKT in MCF7 (measure of mTORC2 activity); test: AlphaLISA Ultra pAKT assay; type: cell-based; settings: Homo sapiens, MCF7, 2 h, MCF-7 cells, 2 hours compound incubation
Method: as §1, with “16,000˜20,000” for “12,000˜16,000”, “(4×)” for “(4λ)”

| Compound | IC50 [1] [µM] | IC50 [2] [µM] |
| --- | --- | --- |
| Cc1c(CN2CCN(c3ccccc3Cl)CC2)cc(C(=O)N2CCN(c3cnccn3)C[C@@H]2C)n1C [Example I-51, (S)-(4-((4-(2-chlorophenyl)piperazin-1-yl)methyl)-1,5-dimethyl-1H-pyrrol-2-yl)(2-methyl-4-(pyrazin-2-yl)piperazin-1-yl)methanone] | 0.01 to 1 | > 10 |
| Cc1c(CN2C3CCC2CN(c2ccccc2C#N)C3)cc(C(=O)N2CCN(c3ccccn3)CC2)n1C [Example I-52, 2-(8-((1,2-dimethyl-5-(4-(pyridin-2-yl)piperazine-1-carbonyl)-1H-pyrrol-3-yl)methyl)-3,8-diazabicyclo[3.2.1]octan-3-yl)benzonitrile] | 0.01 to 1 | > 10 |
| Cc1c(CN2CCN(c3ccccc3C#N)CC2)cc(C(=O)N2CCN(c3ccc(C#N)cc3)CC2)n1C [Example I-53] | 1 to 3 | > 10 |
| Cc1c(CN2CCN(c3ccccc3C#N)CC2)cc(C(=O)N2CCN(c3ccccc3)CC2)n1C [Example I-54] | 0.01 to 1 | > 1 |
| Cc1c(CN2CCN(c3ccccc3C#N)CC2)cc(C(=O)N2CCN(c3ccc(F)cc3)CC2)n1C [Example I-55] | 0.01 to 1 | > 1 |
| Cc1c(CN2CCN(c3ccccc3C#N)CC2)cc(C(=O)N2CCN(c3ncccc3C#N)CC2)n1C [Example I-56] | 0.01 to 1 | > 3 |
| C[C@H]1CN(c2cccc(C#N)c2)CCN1C(=O)c1cc(CN2CCN(c3ccccc3C#N)CC2)cn1C [Example I-57] | 0.01 to 1 | > 3 |
| C[C@H]1CN(c2ccccc2C#N)CCN1C(=O)c1cc(CN2CCN(c3ccccc3C#N)CC2)cn1C [Example I-58] | 0.01 to 1 | > 10 |
| Cc1c(CN2CCN(c3ccccc3Cl)CC2)cc(C(=O)N2CCN(c3cc(C#N)ccn3)CC2)n1C [Example I-59] | 1 to 3 | > 3 |
| Cc1c(CN2CCN(c3ccccc3C#N)CC2)cc(C(=O)N2CCN(c3ccccn3)CC2)n1C [Example I-60] | 0.01 to 1 | > 3 |
| COc1ccnc(N2CCN(C(=O)c3cc(CN4CCN(c5ccccc5C#N)CC4)c(C)n3C)CC2)c1 [Example I-61] | 0.01 to 1 | > 3 |
| Cc1ccnc(N2CCN(C(=O)c3cc(CN4CCN(c5ccccc5C#N)CC4)c(C)n3C)CC2)c1 [Example I-62] | 0.01 to 1 | > 3 |
| Cc1cccc(N2CCN(C(=O)c3cc(CN4CCN(c5ccccc5C#N)CC4)c(C)n3C)CC2)n1 [Example I-64] | 0.01 to 1 | > 3 |
| Cc1c(CN2CCN(c3ccccc3C#N)CC2)cc(C(=O)N2CCN(c3cc(C#N)ccn3)CC2)n1C [Example I-65] | 0.01 to 1 | > 3 |
| Cc1c(CN2CCN(c3ccccc3C#N)CC2)cc(C(=O)N2CCN(c3cccc(C#N)c3)C[C@@H]2C)n1C [Example I-66] | 0.01 to 1 | > 3 |
| Cc1c(CN2CCN(c3ccccc3C#N)CC2)cc(C(=O)N2CCN(c3ccccc3C#N)C[C@@H]2C)n1C [Example I-67] | 0.01 to 1 | > 10 |
| Cc1c(CN2CCN(c3ccccc3C#N)CC2)cc(C(=O)N2CCN(c3cc(Cl)ccn3)CC2)n1C [Example I-68] | 0.01 to 1 | > 1 |

| Compound | IC50 [1] [µM] | IC50 [2] [µM] |
| --- | --- | --- |
| COc1cccc(N2CCN(C(=O)c3cc(CN4CCN(c5ccccc5C#N)CC4)c(C)n3C)CC2)n1 [Example I-69] | 0.01 to 1 | > 3 |
| Cc1ccnc(N2CCN(C(=O)c3cc(CN4CCN(c5ccccc5Cl)CC4)c(C)n3C)CC2)c1 [Example I-70] | 0.01 to 1 | > 3 |
| Cc1c(CN2CCN(c3ccccc3Cl)CC2)cc(C(=O)N2CCN(c3cc(Cl)ccn3)CC2)n1C [Example I-71] | 0.01 to 1 | > 3 |
| Cn1cc(CN2CCN(c3ccccc3C#N)CC2)cc1C(=O)N1CCN(c2ccc(F)cc2)CC1 [Example I-73] | 3 to 10 | > 10 |
| Cc1c(CN2CCN(c3ccccc3Cl)CC2)cc(C(=O)N2CCN(c3ncccn3)C[C@@H]2C)n1C [Example I-74, (S)-(4-((4-(2-chlorophenyl)piperazin-1-yl)methyl)-1,5-dimethyl-1H-pyrrol-2-yl)(2-methyl-4-(pyrimidin-2-yl)piperazin-1-yl)methanone] | 1 to 3 | > 10 |
| Cc1c(CN2CCN(c3ccccc3Cl)CC2)cc(C(=O)N2CCN(c3cccc(F)c3)C[C@@H]2C)n1C [Example I-75, (S)-(4-((4-(2-chlorophenyl)piperazin-1-yl)methyl)-1,5-dimethyl-1H-pyrrol-2-yl)(4-(3-fluorophenyl)-2-methylpiperazin-1-yl)methanone 2,2,2-trifluoroacetate] | 1 to 3 | > 5 |
| Cc1c(CN2CCN(c3ccccc3Cl)CC2)cc(C(=O)N2CCN(c3ncc(F)cn3)C[C@@H]2C)n1C [Example I-77, (S)-(4-((4-(2-chlorophenyl)piperazin-1-yl)methyl)-1,5-dimethyl-1H-pyrrol-2-yl)(4-(5-fluoropyrimidin-2-yl)-2-methylpiperazin-1-yl)methanone] | 1 to 3 | > 5 |
| Cc1c(CN2CCN(c3ncccc3Cl)CC2)cc(C(=O)N2CCN(c3ccc(F)c(F)c3)C[C@@H]2C)n1C [Example I-78, (S)-(4-((4-(3-chloropyridin-2-yl)piperazin-1-yl)methyl)-1,5-dimethyl-1H-pyrrol-2-yl)(4-(3,4-difluorophenyl)-2-methylpiperazin-1-yl)methanone] | 0.01 to 1 | > 3 |
| Cc1c(CN2CCN(c3ncccc3Cl)CC2)cc(C(=O)N2CCN(c3cccc(C#N)c3)CC2)n1C [Example I-79, 3-(4-(4-((4-(3-Chloropyridin-2-yl)piperazin-1-yl)methyl)-1,5-dimethyl-1H-pyrrole-2-carbonyl)piperazin-1-yl)benzonitrile] | 0.01 to 1 | > 3 |
| Cc1c(CN2CCN(c3ncccc3Cl)CC2)cc(C(=O)N2CCN(c3ccc(F)cc3)CC2)n1C [Example I-80, (4-((4-(3-Chloropyridin-2-yl)piperazin-1-yl)methyl)-1,5-dimethyl-1H-pyrrol-2-yl)(4-(4-fluorophenyl)piperazin-1-yl)methanone] | 0.01 to 1 | > 3 |
| Cc1c(CN2CCN(c3ccccc3Cl)CC2)cc(C(=O)N2CCn3nc(-c4ccccc4)cc3C2)n1C [Example I-81, (4-((4-(2-Chlorophenyl)piperazin-1-yl)methyl)-1,5-dimethyl-1H-pyrrol-2-yl)(2-phenyl-6,7-dihydropyrazolo[1,5-a]pyrazin-5(4H)-yl)methanone 2,2,2-trifluoroacetate] | 1 to 3 | > 10 |
| Cc1c(CN2CCN(c3ccccc3Cl)CC2)cc(C(=O)N2CCN(c3ccc(F)c(Cl)c3)CC2)n1C [Example I-82, (4-(3-chloro-4-fluorophenyl)piperazin-1-yl)(4-((4-(2-chlorophenyl)piperazin-1-yl)methyl)-1,5-dimethyl-1H-pyrrol-2-yl)methanone] | 1 to 3 | > 10 |
| Cc1c(CN2CCN(c3ccccc3N=[N+]=[N-])CC2)cc(C(=O)N2CCN(c3ccccc3)C[C@@H]2C)n1C [Example I-83, (S)-(4-((4-(2-azidophenyl)piperazin-1-yl)methyl)-1,5-dimethyl-1H-pyrrol-2-yl)(2-methyl-4-phenylpiperazin-1-yl)methanone] | 1 to 3 | > 10 |
| Cc1c(CN2CCN(c3ncccc3Cl)CC2)cc(C(=O)N2CCN(c3ccc(F)c(F)c3)CC2)n1C [Example I-84, (4-((4-(3-chloropyridin-2-yl)piperazin-1-yl)methyl)-1,5-dimethyl-1H-pyrrol-2-yl)(4-(3,4-difluorophenyl)piperazin-1-yl)methanone] | 0.01 to 1 | > 3 |
| Cc1c(CN2CCN(c3ccccc3Cl)CC2)cc(C(=O)N2CCN(c3cc(F)ccc3C#N)CC2)n1C [Example I-85, 2-(4-(4-((4-(2-Chlorophenyl)piperazin-1-yl)methyl)-1,5-dimethyl-1H-pyrrole-2-carbonyl)piperazin-1-yl)-4-fluorobenzonitrile] | 0.01 to 1 | > 3 |
| Cc1c(CN2CCN(c3ccccc3Cl)CC2)cc(C(=O)N2CCN(c3cc(F)ccc3C#N)C[C@@H]2C)n1C [Example I-86, (S)-2-(4-(4-((4-(2-chlorophenyl)piperazin-1-yl)methyl)-1,5-dimethyl-1H-pyrrole-2-carbonyl)-3-methylpiperazin-1-yl)-4-fluorobenzonitrile] | 0.01 to 1 | > 10 |
| C[C@H]1CN(c2cc(F)ccc2C#N)CCN1C(=O)c1cc(CN2CCN(c3ccccc3Cl)CC2)cn1C [Example I-87, (S)-2-(4-(4-((4-(2-chlorophenyl)piperazin-1-yl)methyl)-1-methyl-1H-pyrrole-2-carbonyl)-3-methylpiperazin-1-yl)-4-fluorobenzonitrile] | 0.01 to 1 | > 5 |

Reference: patent US20190389843A1, “PYRROLE mTORC INHIBITORS AND USES THEREOF” (Navitor Pharmaceuticals, Inc., priority 2016, published 2019)
